In patent publication US8138178B2, “Cyclic inhibitors of 11beta-hydroxysteroid dehydrogenase 1” (Vitae Pharmaceuticals, Inc., priority 2008, dated 2012):

Tests used:
[1] = molecular target: human recombinant cytochrome P450 3A4 (Homo sapiens, UniProt P08684); assay: Biological Test Example 6: CYP3A4 inhibition; assay type: in vitro ADME
[2] = molecular target: human recombinant cytochrome P450 2C9 (Homo sapiens, UniProt P11712); assay: biochemical
[3] = Biological Test Example 5: fraction unbound in human plasma (equilibrium dialysis); assay type: in vitro ADME
[4] = molecular target: human recombinant cytochrome P450 2C19 (Homo sapiens, UniProt P33261); assay: Biological Test Example 8: CYP2C19 inhibition; assay type: in vitro ADME
Sequence of human recombinant cytochrome P450 2C19 (P33261 whole entry): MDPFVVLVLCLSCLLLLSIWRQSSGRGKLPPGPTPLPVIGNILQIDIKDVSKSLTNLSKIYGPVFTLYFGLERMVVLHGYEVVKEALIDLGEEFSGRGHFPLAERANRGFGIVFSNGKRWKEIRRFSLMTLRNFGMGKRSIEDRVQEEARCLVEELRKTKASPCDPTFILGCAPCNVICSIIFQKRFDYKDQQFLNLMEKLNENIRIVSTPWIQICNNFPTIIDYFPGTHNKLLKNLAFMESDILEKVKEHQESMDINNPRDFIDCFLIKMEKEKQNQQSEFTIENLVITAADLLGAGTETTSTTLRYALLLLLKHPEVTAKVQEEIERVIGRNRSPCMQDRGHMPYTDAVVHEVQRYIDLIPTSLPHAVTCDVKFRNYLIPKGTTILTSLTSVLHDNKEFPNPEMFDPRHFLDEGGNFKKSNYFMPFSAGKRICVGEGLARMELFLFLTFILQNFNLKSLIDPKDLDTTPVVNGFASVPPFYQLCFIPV

Sequence of human recombinant cytochrome P450 3A4 (P08684 whole entry): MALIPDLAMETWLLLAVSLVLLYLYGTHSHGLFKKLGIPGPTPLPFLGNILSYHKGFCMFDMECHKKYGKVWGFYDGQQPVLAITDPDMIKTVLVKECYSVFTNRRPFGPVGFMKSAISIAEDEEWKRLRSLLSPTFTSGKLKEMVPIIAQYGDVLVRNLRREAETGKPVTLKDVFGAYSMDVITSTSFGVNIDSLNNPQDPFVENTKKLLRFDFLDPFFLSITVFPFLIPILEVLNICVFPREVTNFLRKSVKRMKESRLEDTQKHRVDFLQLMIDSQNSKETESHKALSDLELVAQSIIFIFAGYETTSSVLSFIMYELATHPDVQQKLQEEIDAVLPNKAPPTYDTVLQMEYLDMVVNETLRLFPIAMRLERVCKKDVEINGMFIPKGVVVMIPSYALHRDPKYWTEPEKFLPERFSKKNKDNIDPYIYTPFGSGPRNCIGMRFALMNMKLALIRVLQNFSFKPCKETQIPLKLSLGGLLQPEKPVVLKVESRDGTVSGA
Sequence of human recombinant cytochrome P450 2C9 (P11712 whole entry): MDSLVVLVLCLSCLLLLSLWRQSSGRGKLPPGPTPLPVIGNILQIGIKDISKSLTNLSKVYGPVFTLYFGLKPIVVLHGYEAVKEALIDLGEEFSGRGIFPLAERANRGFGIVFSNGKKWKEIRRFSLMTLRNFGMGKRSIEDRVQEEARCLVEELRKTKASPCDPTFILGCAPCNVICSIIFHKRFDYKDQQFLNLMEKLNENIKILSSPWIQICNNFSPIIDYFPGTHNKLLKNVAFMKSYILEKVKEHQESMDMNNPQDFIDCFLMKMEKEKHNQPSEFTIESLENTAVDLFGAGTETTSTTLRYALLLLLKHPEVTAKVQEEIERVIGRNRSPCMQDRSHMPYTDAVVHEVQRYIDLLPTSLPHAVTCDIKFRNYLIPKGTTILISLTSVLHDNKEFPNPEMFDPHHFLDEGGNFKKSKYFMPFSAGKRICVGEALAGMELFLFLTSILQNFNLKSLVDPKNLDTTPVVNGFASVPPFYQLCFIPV

fraction unbound [3] | Compound | IC50 [1] [µM] | also measured
– | C[C@@H](c1ccc(-c2ccc(=O)n(C)c2)cc1)N1CC[C@](CC(C)(C)O)(c2ccccc2F)OC1=O [Example 23, (S)-6-(2-fluorophenyl)-6-(2-hydroxy-2-methylpropyl)-3-((S)-1-(4-(1-methyl-6-oxo-1,6-dihydropyridin-3-yl)phenyl)ethyl)-1,3-oxazinan-2-one] | > 50 | IC50 [2]: > 50 µM
0.139 | C[C@@H](c1ccc(-c2ccc(=O)n(C)c2)cc1)N1CC[C@](CCCO)(c2ccccc2)OC1=O [Example 30, (R)-6-(3-hydroxypropyl)-3-((S)-1-(4-(1-methyl-6-oxo-1,6-dihydropyridin-3-yl)phenyl)ethyl)-6-phenyl-1,3-oxazinan-2-one] | – | –
0.123 | C[C@@H](c1ccc(-c2ccc(=O)n(C)c2)cc1)N1CC[C@](CC(C)(C)O)(c2ccc(F)cc2)OC1=O [Example 32, (S)-6-(4-fluorophenyl)-6-(2-hydroxy-2-methylpropyl)-3-((S)-1-(4-(1-methyl-6-oxo-1,6-dihydropyridin-3-yl)phenyl)ethyl)-1,3-oxazinan-2-one] | – | –
0.146 | C[C@@H](c1ccc(-c2ccc(=O)n(C)c2)cc1)N1CC[C@](CC(C)(C)O)(c2ccccc2)OC1=O [Example 37, (S)-6-(2-hydroxy-2-methylpropyl)-3-((S)-1-(4-(1-methyl-6-oxo-1,6-dihydropyridin-3-yl)phenyl)ethyl)-6-phenyl-1,3-oxazinan-2-one] | – | –
0.087 | C[C@@H](c1ccc(-c2ccn(C)c(=O)c2)cc1)N1CC[C@](CC(C)(C)O)(c2ccccc2)OC1=O [Example 48, (S)-6-(2-hydroxy-2-methylpropyl)-3-((S)-1-(4-(1-methyl-2-oxo-1,2-dihydropyridin-4-yl)phenyl)ethyl)-6-phenyl-1,3-oxazinan-2-one] | – | –
0.128 | CCn1cc(-c2ccc([C@H](C)N3CC[C@](CC(C)(C)O)(c4ccccc4)OC3=O)cc2)ccc1=O [Example 53, (S)-3-((S)-1-(4-(1-ethyl-6-oxo-1,6-dihydropyridin-3-yl)phenyl)ethyl)-6-(2-hydroxy-2-methylpropyl)-6-phenyl-1,3-oxazinan-2-one] | – | –
0.091 | CC[C@@H](c1ccc(-c2ccc(=O)n(C)c2)cc1)N1CC[C@](CC(C)(C)O)(c2ccccc2)OC1=O [Example 54, (S)-6-(2-hydroxy-2-methylpropyl)-3-((S)-1-(4-(1-methyl-6-oxo-1,6-dihydropyridin-3-yl)phenyl)propyl)-6-phenyl-1,3-oxazinan-2-one] | – | –
0.071 | CC[C@@H](c1ccc(-c2ccn(C)c(=O)c2)cc1)N1CC[C@](CC(C)(C)O)(c2ccccc2)OC1=O [Example 55, (S)-6-(2-hydroxy-2-methylpropyl)-3-((S)-1-(4-(1-methyl-2-oxo-1,2-dihydropyridin-4-yl)phenyl)propyl)-6-phenyl-1,3-oxazinan-2-one] | – | –
0.055 | C[C@@H](c1ccc(-c2ccn(CC(F)(F)F)c(=O)c2)cc1)N1CC[C@](CC(C)(C)O)(c2ccccc2)OC1=O [Example 66, (S)-6-(2-hydroxy-2-methylpropyl)-3-((S)-1-(4-(2-oxo-1-(2,2,2-trifluoroethyl)-1,2-dihydropyridin-4-yl)phenyl)ethyl)-6-phenyl-1,3-oxazinan-2-one] | – | –
0.156 | C[C@@H](c1ccc(-c2ccn(C3CC3)c(=O)c2)cc1)N1CC[C@](CC(C)(C)O)(c2ccccc2)OC1=O [Example 75, 3-{(S)-1-[4-(1-Cyclopropyl-2-oxo-1,2-dihydro-pyridin-4-yl)-phenyl]-ethyl}-(S)-6-(2-hydroxy-2-methyl-propyl)-6-phenyl-[1,3]oxazinan-2-one] | – | –
– | COC[C@]1(c2ccccc2)CCN([C@@H](C)c2ccc(-c3ccc(=O)n(C)c3)cc2)C(=O)O1 [Example 77, (R)-6-Methoxymethyl-3-{(S)-1-[4-(1-methyl-6-oxo-1,6-dihydro-pyridin-3-yl)-phenyl]-ethyl}-6-phenyl-[1,3]oxazinan-2-one] | > 50 | IC50 [2]: > 50 µM
– | (S)-3-((S)-1-(4-(1-(difluoromethyl)-2-oxo-1,2-dihydropyridin-4-yl)phenyl)ethyl)-6-(2-hydroxy-2-methylpropyl)-6-phenyl-1,3-oxazinan-2-one [Example 5] | 29 | –

Compound | fraction unbound [3] | IC50 [1] [µM] | also measured
CC[C@@H](c1ccc(-c2ccc(=O)n(CC)c2)cc1)N1CC[C@](CC(C)(C)O)(c2ccccc2)OC1=O [Example 52, (S)-3-((S)-1-(4-(1-ethyl-6-oxo-1,6-dihydropyridin-3-yl)phenyl)propyl)-6-(2-hydroxy-2-methylpropyl)-6-phenyl-1,3-oxazinan-2-one] | 0.09 | 48 | IC50 [4]: 8 µM
